Measured values reported in patent US20130203649A1, “INHIBITORS OF TLR SIGNALING BY TARGETING TIR DOMAIN INTERFACES” (UNIVERSITY OF MARYLAND, BALTIMORE, priority 2012, published 2013).
No end group written: not given here.

Tests used:
TLR4 = experiment: LPS-induced STAT1-Y701 phosphorylation in macrophages (immunoblotting); type: cell-based, mouse; conditions: 2 h after LPS
C57BL/6J mice = experiment: Survival after lethal LPS challenge in C57BL/6J mice; type: in vivo, mouse; conditions: LPS 17.5 μg/g i.p.; peptide 10 nmol/g i.p. 1 h before
Protocol: FIG. 10. […] (A-E) C57BL/6J mice were injected i.p. with purified Escherichia coli K235 LPS (1 μg/g) or PBS. Peptides (10 nmol/g of animal weight) were injected i.p. (A, B, D, E) or i.v. (C) 1 h before (A, B, and C) or 30 min after (D, E) i.p. injection of LPS. Data in panels A and D show plasma IL-6 and TNF-α levels measured 2 h after LPS challenge. Peptide TM8/9 was used as a non-inhibitory control peptide. Data represent the means±s.e.m. for 6-12 blood samples obtained in at least three independent experiments. *p<0.01. (F, G) C57BL/6J mice were challenged i.p. with a lethal LPS dose (17.5 μg/g). Peptides (10 nmol/g) were injected i.p. 1 h before LPS challenge. […] The statistical significance of changes in mortality and survival time was determined by the Mantel Cox log-rank test using GraphPad Prism software (Version 5.04). *p<0.01.
Eight-week-old C57BL/6J mice were injected with 1 or 17.5 μg/g animal weight of E. coli K235 LPS i.p. Peptides reconstituted in PBS were administered i.p. or i.v. Control groups received equivalent volume of solvent (PBS). The blood samples were collected 1, 2, 4, and 8 h, or 2, 8, and 24 h after LPS challenge. The plasma samples were obtained and kept frozen until TNF-α and IL-6 were measured by ELISA. Survival of animals was monitored every 6-16 h after LPS challenge. All animal experiments were carried out with institutional approval.
We next studied whether inhibitory peptides protect mice from a lethal LPS challenge. TR6, a previously described inhibitory peptide derived from the third helical region of TRAP (30), was also included in this study as an additional control. C57BL/6J mice were injected i.p. with 17.5 μg/g LPS. This dose induced 100% mortality in the control group (FIG. 10F). […] The peptide-treated survivors appeared active and healthy at the time the experiments were terminated, 7 d after injection of LPS.

RQIKIWFQNRRMKWKKCLQDAIDHSGFT [TF5]
LPS-induced STAT1-Y701 phosphorylation (TLR4): inhibit

RQIKIWFQNRRMKWKKPGFLRDPWCKYQML [TR6]
Survival after lethal LPS challenge (C57BL/6J mice): improved animal survival comparably to TM6
